Test results reported in article PMC3556730 (Neuropharmacology, 2011).
Where two headings read alike, the source gives them in different places.

Tests used:
5-HT2AR [1] = biological target: T1, 5-HT2AR (Homo sapiens, UniProt P28223); conditions: for Effect on 5-HT-induced 5-HT2AR-IP3 production / Effect on DOI-induced 5-HT2AR-IP3 production: co-expressing cells, D2R agonist 10^−5 M; for Emax (inositol phosphate production): HEK-5HT2AR-D2R, mean ± SEM
[2] = tested on: MK-801-induced locomotor activity; assay: MK-801-induced locomotor activity in wild-type and 5-HT2AR-KO mice; type: in vivo; conditions: MK-801 0.5 mg/kg i.p.; wild-type and 5-HT2AR-KO mice (similar)
5-HT2AR [3] = biological target: 5-HT2AR (Mus musculus, UniProt P35363); assay: [3H]Ketanserin competition binding, mouse striatum membranes
5-HT2AR (Mus musculus, UniProt P35363), sequence (P35363 whole entry): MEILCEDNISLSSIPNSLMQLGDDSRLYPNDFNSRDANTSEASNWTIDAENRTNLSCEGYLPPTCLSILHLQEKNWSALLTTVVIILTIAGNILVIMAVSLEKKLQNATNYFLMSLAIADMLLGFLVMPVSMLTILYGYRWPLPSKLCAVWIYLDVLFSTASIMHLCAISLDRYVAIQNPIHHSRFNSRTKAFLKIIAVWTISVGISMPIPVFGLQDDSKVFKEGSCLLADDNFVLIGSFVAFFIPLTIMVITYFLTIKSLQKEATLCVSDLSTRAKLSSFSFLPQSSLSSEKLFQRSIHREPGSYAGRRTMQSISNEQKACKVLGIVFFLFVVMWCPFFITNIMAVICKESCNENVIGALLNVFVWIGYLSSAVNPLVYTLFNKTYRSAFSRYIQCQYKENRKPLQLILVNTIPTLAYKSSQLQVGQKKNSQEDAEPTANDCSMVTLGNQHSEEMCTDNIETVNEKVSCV

5-HT2AR [4] = biological target: T1, 5-HT2AR
5-HT2AR [5] = biological target: T1, 5-HT2AR; conditions: HEK-5HT2AR; vehicle; mean ± SEM
5-HT2AR [6] = biological target: T1, 5-HT2AR; conditions: HEK-5HT2AR
[7] = mouse striatum, with quinpirole (10^−5 M)

T1 sequence (P28223 whole entry): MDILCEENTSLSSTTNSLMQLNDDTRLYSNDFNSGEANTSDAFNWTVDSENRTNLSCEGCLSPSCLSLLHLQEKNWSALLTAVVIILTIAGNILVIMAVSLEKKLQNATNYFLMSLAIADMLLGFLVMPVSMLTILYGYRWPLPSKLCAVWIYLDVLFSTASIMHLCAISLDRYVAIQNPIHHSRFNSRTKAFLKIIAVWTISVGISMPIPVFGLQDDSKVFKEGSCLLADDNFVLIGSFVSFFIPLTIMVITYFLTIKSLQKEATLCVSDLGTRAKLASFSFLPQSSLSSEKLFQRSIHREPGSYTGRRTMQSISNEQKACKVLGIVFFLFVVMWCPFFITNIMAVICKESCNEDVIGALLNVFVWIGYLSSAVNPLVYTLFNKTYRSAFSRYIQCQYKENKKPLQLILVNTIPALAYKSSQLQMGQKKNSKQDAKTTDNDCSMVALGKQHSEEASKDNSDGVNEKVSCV

CCCN(CCC)CCc1cccc2c1CC(=O)N2 [ropinirole]
Effect on 5-HT-induced 5-HT2AR-IP3 production (5-HT2AR [1]): have no effect | Effect on DOI-induced 5-HT2AR-IP3 production (5-HT2AR [1]): decrease

C[C@]12N[C@H](Cc3ccccc31)c1ccccc12 [MK-801, dizocilpine]
Locomotor activity [2]: increased locomotor activity

CCN1CCC[C@H]1CNC(=O)c1c(O)c(Cl)cc(Cl)c1OC [raclopride]
Effect on quinpirole-enhanced DOI affinity for 5-HT2AR (5-HT2AR [3]; [7]): prevents the enhanced effect

CCCN1CCC[C@@H]2Cc3n[nH]cc3C[C@H]21 [quinpirole]
Effect on affinity of DOI for 5-HT2AR (5-HT2AR [3]; mouse striatum, modulator 10^−5 M): significantly higher | Effect on 5-HT-induced 5-HT2AR-IP3 production (5-HT2AR [1]): have no effect | Effect on DOI-induced 5-HT2AR-IP3 production (5-HT2AR [1]): decrease | Effect on affinity of DOI for 5-HT2AR (5-HT2AR [4]; HEK293 co-expressing 5-HT2AR and D2R, modulator 10^−5 M): marked increase

NCCc1c[nH]c2ccc(O)cc12 [5-HT, serotonin]
Emax (inositol phosphate production) (5-HT2AR [5]): 647 ± 74 cpm | Emax (inositol phosphate production) (5-HT2AR [1]; vehicle): 608 ± 12 cpm | Emax (inositol phosphate production) (5-HT2AR [1]; with quinpirole (10^−5 M)): 589 ± 22 cpm | Emax (inositol phosphate production) (5-HT2AR [1]; with ropinirole (10^−5 M)): 564 ± 47 cpm

COc1cc(CC(C)N)c(OC)cc1I (racemic) [DOI, (+/−)-2,5-dimethoxy-4-iodoamphetamine]
Ki (5-HT2AR [3]; Fig. 1C single experiment, control, one-site model): 95 nM | Ki (5-HT2AR [3]; Fig. 1D single experiment, control, one-site model): 3300 nM | % High (percentage of high-affinity binding sites) (5-HT2AR [3]; [7]): 44 ± 2% | Ki (5-HT2AR [3]; read-out: Ki-high, mouse striatum, with quinpirole (10^−5 M), two-site model, mean ± SEM): 0.065 nM | Ki (5-HT2AR [3]; read-out: Ki-low, mouse striatum, vehicle, one-site model, mean ± SEM): 250 nM | Ki (5-HT2AR [3]; read-out: Ki-low, mouse striatum, with quinpirole (10^−5 M) + raclopride (10^−6 M), one-site model, mean ± SEM): 690 nM | Ki (5-HT2AR [3]; read-out: Ki-low, mouse striatum, with quinpirole (10^−5 M), two-site model, mean ± SEM): 510 nM | Ki (5-HT2AR [3]; read-out: Ki-low, mouse striatum, with raclopride (10^−6 M), one-site model, mean ± SEM): 660 nM | % High (percentage of high-affinity binding sites) (5-HT2AR [6]; vehicle): 41 ± 5% | % High (percentage of high-affinity binding sites) (5-HT2AR [6]; with quinpirole (10^−5 M)): 48% | % High (percentage of high-affinity binding sites) (5-HT2AR [4]; HEK-5HT2AR-D2R, with quinpirole (10^−5 M)): 46 ± 3%
